The source made the active and inactive calls. How the calls were made is not given here.
assay: Luciferase light induction in v cholerae bh1651, agonist dose response, confirmatory (AID 624254); conditions: V. cholerae BH1651 luxOD47E, luciferase light induction, 6 h; at 50 µM (top of the series)

**Q.** For `Cc1ccc2nc(SCc3nnc(-c4ccccc4Br)o3)[nH]c2c1`, which “activation (light increase)” value is on record?
**A.** Its value is “inactive”.

**Q.** For `CCN(CC)C(=O)c1sc(NC(=O)Cc2ccc(OC)cc2)c(C#N)c1C`, which “activation (light increase)” value is on record?
**A.** Its value is “inactive”.

**Q.** Which “activation (light increase)” value does the source give for `COc1ccc2c(c1)CCC(C)N2S(=O)(=O)c1ccc(C2CNC(=O)C2)cc1` (centres undefined) here?
**A.** Its value is “inactive”.

**Q.** For `CCN(CC(=O)Nc1ccccc1C(F)(F)F)C(=O)CN1C(=O)NC(C)(c2ccc3ccccc3c2)C1=O` (centres undefined), which “activation (light increase)” value is on record?
**A.** Its value is “inactive”.

**Q.** Which “activation (light increase)” value does the source give for `O=c1c2ccccc2nnn1CSc1nnc(-c2cccnc2)n1-c1ccccc1F` here?
**A.** The value was “inactive”.

**Q.** For `CCOC(=O)C1CCCN(C(=O)c2cc3c(OC)c(OC)c(OC)cc3[nH]2)C1` (centres undefined), which “activation (light increase)” value is on record?
**A.** The value was “inactive”.

**Q.** Which “activation (light increase)” value does the source give for `COC(=O)c1cc(NC(=O)C2CC=CCC2C(=O)O)cc(C(=O)OC)c1` (centres undefined) here?
**A.** The value was “inactive”.

**Q.** With `CC12CCC(=O)N1C(C(=O)NNC(=O)COc1ccc(Br)cc1)CS2` (centres undefined) as the molecule, how does the “activation (light increase)” value read?
**A.** The value was “inactive”.

**Q.** Which “activation (light increase)” value does the source give for `Cn1c(SCc2cnc(-c3ccccc3)s2)nnc1C1COc2ccccc2O1` (centres undefined) here?
**A.** Its value is “inactive”.

**Q.** Which “activation (light increase)” value does the source give for `Cc1ccc(CN2C(=O)CCC2C(=O)NCCN(CC(C)C)CC(C)C)cc1` (centres undefined) here?
**A.** The value was “inactive”.

**Q.** With `NS(=O)(=O)c1cc(C(=O)OCC(=O)NC2CCCCCCC2)ccc1Cl` as the molecule, how does the “activation (light increase)” value read?
**A.** The value was “inactive”.

**Q.** Which “activation (light increase)” value does the source give for `O=S(=O)(Nc1ccc(-c2csc(-c3ccccc3)n2)cc1)c1ccc(F)cc1` here?
**A.** The value was “inactive”.

**Q.** For `COc1cccc(Nc2nc(NCCO)c3ccccc3n2)c1`, which “activation (light increase)” value is on record?
**A.** The value was “inactive”.

**Q.** With `O=c1oc2c(CN3CCOCC3)c(O)c(Cl)cc2c2c1CCC2` as the molecule, how does the “activation (light increase)” value read?
**A.** Its value is “inactive”.

**Q.** Which “activation (light increase)” value does the source give for `Cc1ccc(Oc2ccc(S(=O)(=O)N3CCOCC3)cc2C(N)=O)c(-n2nc3ccccc3n2)c1` here?
**A.** Its value is “inactive”.

**Q.** For `CCOc1ccc(Nc2nc3c(c(=O)[nH]2)CCCC3)cc1`, which “activation (light increase)” value is on record?
**A.** The value was “inactive”.

**Q.** With `O=C(Nc1nnc(-c2ccc(Br)cc2)o1)c1cccc(N2C(=O)CCC2=O)c1` as the molecule, how does the “activation (light increase)” value read?
**A.** Its value is “inactive”.

**Q.** Which “activation (light increase)” value does the source give for `S=C(c1ccc(N2CCOCC2)cc1)N1CCCCC1` here?
**A.** Its value is “inactive”.

**Q.** For `CC(C)NC(=O)c1ccc(-c2cccc(C(F)(F)F)c2)o1`, which “activation (light increase)” value is on record?
**A.** The value was “inactive”.

**Q.** Which “activation (light increase)” value does the source give for `CCn1c(CC(=O)Nc2cccc(Cl)c2Cl)nnc1SCCOc1ccc(OC)cc1` here?
**A.** Its value is “inactive”.

**Q.** Which “activation (light increase)” value does the source give for `COc1cccc(CNC(=O)COC(=O)CN(C)S(=O)(=O)c2ccc(NC(C)=O)cc2)c1` here?
**A.** The value was “inactive”.

**Q.** Which “activation (light increase)” value does the source give for `O=C(Nc1cccc(-c2ccc(N3CCOCC3)nn2)c1)c1ccc([N+](=O)[O-])cc1` here?
**A.** Its value is “inactive”.

**Q.** With `CCOC(=O)c1ccccc1NC(=O)COC(=O)C1=COCCO1` as the molecule, how does the “activation (light increase)” value read?
**A.** The value was “inactive”.

**Q.** With `Cc1ccc(S(=O)(=O)N2CCN(C(=O)COC(=O)/C=C/c3ccc(F)cc3)CC2)c(C)c1` as the molecule, how does the “activation (light increase)” value read?
**A.** Its value is “inactive”.

**Q.** For `CCCn1nnnc1NCc1ccc(N(CC)CC)cc1`, which “activation (light increase)” value is on record?
**A.** Its value is “inactive”.

**Q.** Which “activation (light increase)” value does the source give for `CCSc1nnc(NC(=O)c2ccc3ccccc3n2)s1` here?
**A.** The value was “inactive”.

**Q.** Which “activation (light increase)” value does the source give for `COc1cc(C(N)=O)cc(Br)c1OC` here?
**A.** The value was “inactive”.

**Q.** For `OCCN1CCN(CC(O)COc2ccc(Cl)cc2)CC1` (centres undefined), which “activation (light increase)” value is on record?
**A.** The value was “inactive”.

**Q.** Which “activation (light increase)” value does the source give for `COc1cc(SC)ccc1C(=O)OCC(=O)NC1CCCC1` here?
**A.** Its value is “inactive”.

**Q.** With `O=C1C(=O)N(Cc2ccco2)C(c2cccc(Cl)c2)/C1=C(\O)c1ccc2c(c1)OCCO2` (centres undefined) as the molecule, how does the “activation (light increase)” value read?
**A.** Its value is “inactive”.

**Q.** With `Cc1ccc(NS(=O)(=O)c2cn(C)cn2)cc1` as the molecule, how does the “activation (light increase)” value read?
**A.** Its value is “inactive”.

**Q.** Which “activation (light increase)” value does the source give for `CNC(=O)c1cc2cc(OC)ccc2n1CCN(Cc1ccccc1)Cc1ccccc1` here?
**A.** Its value is “inactive”.

**Q.** For `CCC(=O)c1ccc(N2CCCCCC2)c(F)c1`, which “activation (light increase)” value is on record?
**A.** The value was “inactive”.

**Q.** Which “activation (light increase)” value does the source give for `CCCCNC(=O)CN(c1cccc(Br)c1)S(C)(=O)=O` here?
**A.** Its value is “inactive”.

**Q.** For `Cc1cc(C(C)(C)C)oc1C(=O)OCC(=O)NC1CCCCC1`, which “activation (light increase)” value is on record?
**A.** Its value is “inactive”.

**Q.** With `Cc1cc(C)c(S(C)(=O)=O)c(Oc2ccc(C(C)(C)C)cc2)n1` as the molecule, how does the “activation (light increase)” value read?
**A.** The value was “inactive”.

**Q.** For `CCn1c(SCC(=O)OC2CCCCC2)nnc1-c1ccncc1`, which “activation (light increase)” value is on record?
**A.** Its value is “inactive”.

**Q.** With `Cc1cc(NC2CCCCC2)nc(-c2ccccc2O)n1` as the molecule, how does the “activation (light increase)” value read?
**A.** Its value is “inactive”.

**Q.** For `Cc1ccc(C(=O)OCC(=O)NCCNC(=O)COC(=O)c2ccc(C)s2)s1`, which “activation (light increase)” value is on record?
**A.** The value was “inactive”.

From PubChem BioAssay AID624254 (Broad Institute, 2012)
